This passage reports inhibition results from US9187471B2, “Pyrido [4,3-b] indole and pyrido [3,4-b] indole derivatives and methods of use” (Medivation Technologies, Inc., priority 2010, dated 2015).

Structures are written as SMILES.

Broadly, the inhibition is the change of the read-out against control, counted positive when it falls.

Assay [1] addresses T1, rat adrenergic α1A receptor (Rattus norvegicus, UniProt P43140).
T1 construct: rat adrenergic α1A receptor obtained from Wistar Rat submaxillary glands; from tissue; host or cells: Wistar rat submaxillary glands
T1 sequence (P43140 1-466): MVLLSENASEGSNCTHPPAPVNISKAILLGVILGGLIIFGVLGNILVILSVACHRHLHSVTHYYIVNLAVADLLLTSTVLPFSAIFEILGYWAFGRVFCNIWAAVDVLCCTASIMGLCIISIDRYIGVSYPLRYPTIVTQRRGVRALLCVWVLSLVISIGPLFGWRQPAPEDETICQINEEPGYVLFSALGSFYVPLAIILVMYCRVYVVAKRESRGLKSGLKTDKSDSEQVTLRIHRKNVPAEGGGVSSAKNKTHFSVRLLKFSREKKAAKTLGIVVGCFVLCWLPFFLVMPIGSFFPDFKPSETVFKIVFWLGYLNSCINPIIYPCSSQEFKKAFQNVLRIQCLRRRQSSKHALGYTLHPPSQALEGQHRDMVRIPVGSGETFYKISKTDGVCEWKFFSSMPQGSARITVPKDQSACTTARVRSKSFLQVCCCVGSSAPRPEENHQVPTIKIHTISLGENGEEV
The assay can be described thus: Adrenergic α1A radioligand binding ([3H]Prazosin). Conditions: read-out: Adrenergic (0.1 μM) a1A, percent inhibition of specific binding; compound at 0.1 μM; 0.25 nM [3H]Prazosin. The essentials: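 Wistar rat submaxillary gland receptor in 50 mM Tris-HCl pH 7.4 with 0.5 mM EDTA, incubated with compound and 0.25 nM [3H]Prazosin for 60 min at 25 °C.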

Assay [2] addresses T2, human recombinant serotonin (5-Hydroxytryptamine) 5-HT2A receptor (Homo sapiens, UniProt P28223).
T2 construct: expressed in transfected cells; host or cells: CHO-K1
Description: Serotonin 5-HT2A radioligand binding ([3H]Ketanserin). As to conditions: compound at 0.1 μM; read-out: Inhibition of ligand binding, Serotonin 5-HT2A (percent inhibition of specific binding). As for the experimental part: Compounds of the invention were incubated with 0.5 nM [^3H]Ketanserin for 60 min at 25° C. Non-specific binding was estimated in the presence of 1 μM Mianserin. Receptor proteins were filtered and washed, the filters were then counted to determine [^3H]Ketanserin specifically bound.

In assay [3] the target is T3, human recombinant histamine H1 receptor (Homo sapiens, UniProt P35367).
T3 construct: expressed in transfected cells; host or cells: CHO-K1
T3 sequence (P35367 whole entry): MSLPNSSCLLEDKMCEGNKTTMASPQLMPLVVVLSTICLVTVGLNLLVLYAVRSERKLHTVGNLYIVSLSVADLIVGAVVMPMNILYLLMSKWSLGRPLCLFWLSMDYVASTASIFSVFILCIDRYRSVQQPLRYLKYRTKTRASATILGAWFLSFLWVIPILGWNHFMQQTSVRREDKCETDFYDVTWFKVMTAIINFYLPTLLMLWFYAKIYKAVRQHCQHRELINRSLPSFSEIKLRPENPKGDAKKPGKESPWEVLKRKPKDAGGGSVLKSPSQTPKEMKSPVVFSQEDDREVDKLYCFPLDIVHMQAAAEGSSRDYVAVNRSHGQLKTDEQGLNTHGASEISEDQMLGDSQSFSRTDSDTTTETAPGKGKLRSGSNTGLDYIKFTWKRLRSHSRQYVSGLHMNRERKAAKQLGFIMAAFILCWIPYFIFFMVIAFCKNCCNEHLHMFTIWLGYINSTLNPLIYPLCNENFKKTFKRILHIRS
The assay can be described thus: Histamine H1 radioligand binding ([3H]Pyrilamine). As to conditions: read-out: Histamine H1 Binding (1 μM), percent inhibition of specific binding; compound at 1 μM; 1.2 nM [3H]Pyrilamine. The procedure, abridged: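 Results expressed as percent inhibition of specific [3H]pyrilamine binding, counted on filters after washing. Receptor source: CHO-K1 cells expressing recombinant human H1, in modified Tris-HCl buffer (50 mM, pH 7.4; 2 mM MgCl2, 100 mM NaCl, 250 mM sucrose). 1 μM pyrilamine defined non-specific binding.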

Assay [4] deals with T4, human recombinant serotonin (5-Hydroxytryptamine) 5-HT6 receptor (Homo sapiens, UniProt P50406).
T4 construct: expressed in transfected cells; host or cells: HeLa
T4 sequence (P50406 whole entry): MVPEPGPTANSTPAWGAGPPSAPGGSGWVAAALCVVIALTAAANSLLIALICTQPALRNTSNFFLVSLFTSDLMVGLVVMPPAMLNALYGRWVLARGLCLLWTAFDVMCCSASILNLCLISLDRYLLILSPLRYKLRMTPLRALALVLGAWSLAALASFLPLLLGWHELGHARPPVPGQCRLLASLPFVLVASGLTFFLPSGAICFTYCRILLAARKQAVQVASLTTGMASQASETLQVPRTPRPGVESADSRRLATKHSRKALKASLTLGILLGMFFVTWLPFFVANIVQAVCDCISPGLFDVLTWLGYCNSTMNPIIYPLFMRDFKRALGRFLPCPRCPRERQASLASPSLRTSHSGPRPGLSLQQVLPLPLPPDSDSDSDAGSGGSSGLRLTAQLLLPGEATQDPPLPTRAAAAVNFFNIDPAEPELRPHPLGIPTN
The assay can be described thus: Serotonin 5-HT6 radioligand binding ([3H]LSD). Conditions: compound at 0.1 μM; read-out: Inhibition of ligand binding, Serotonin 5-HT6 (percent inhibition of specific binding). The text has this:
Receptor proteins were filtered and washed, the filters were then counted to determine [3H]LSD specifically bound.

The target in assay [5] is T5, human recombinant serotonin (5-Hydroxytryptamine) 5-HT5A receptor (Homo sapiens, UniProt P47898).
T5 construct: expressed in transfected cells; host or cells: CHO-K1
T5 sequence (P47898 whole entry): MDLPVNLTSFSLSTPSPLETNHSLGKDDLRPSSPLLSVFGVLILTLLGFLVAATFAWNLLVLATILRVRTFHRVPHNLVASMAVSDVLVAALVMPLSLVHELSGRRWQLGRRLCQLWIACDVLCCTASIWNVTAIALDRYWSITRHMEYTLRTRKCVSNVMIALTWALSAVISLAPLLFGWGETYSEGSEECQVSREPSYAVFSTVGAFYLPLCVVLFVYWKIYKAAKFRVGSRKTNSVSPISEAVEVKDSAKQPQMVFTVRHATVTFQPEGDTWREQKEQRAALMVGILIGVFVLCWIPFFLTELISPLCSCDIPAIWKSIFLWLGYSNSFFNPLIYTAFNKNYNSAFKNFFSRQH
The assay can be described thus: Serotonin 5-HT5A radioligand binding ([3H]LSD). As to conditions: compound at 0.1 μM; read-out: Inhibition of ligand binding, Serotonin 5-HT5A (percent inhibition of specific binding). As for the experimental part: Compounds of the invention were incubated with 1.7 nM [^3H]Lysergic acid diethylamide (LSD) for 60 min at 37° C. […] Receptor proteins were filtered and washed, the filters were counted to determine [^3H]LSD specifically bound.

In assay [6] the target is T6, human recombinant serotonin (5-Hydroxytryptamine) 5-HT2C receptor (Homo sapiens, UniProt P28335).
T6 construct: expressed in transfected cells; host or cells: CHO-K1
T6 sequence (P28335 33-458): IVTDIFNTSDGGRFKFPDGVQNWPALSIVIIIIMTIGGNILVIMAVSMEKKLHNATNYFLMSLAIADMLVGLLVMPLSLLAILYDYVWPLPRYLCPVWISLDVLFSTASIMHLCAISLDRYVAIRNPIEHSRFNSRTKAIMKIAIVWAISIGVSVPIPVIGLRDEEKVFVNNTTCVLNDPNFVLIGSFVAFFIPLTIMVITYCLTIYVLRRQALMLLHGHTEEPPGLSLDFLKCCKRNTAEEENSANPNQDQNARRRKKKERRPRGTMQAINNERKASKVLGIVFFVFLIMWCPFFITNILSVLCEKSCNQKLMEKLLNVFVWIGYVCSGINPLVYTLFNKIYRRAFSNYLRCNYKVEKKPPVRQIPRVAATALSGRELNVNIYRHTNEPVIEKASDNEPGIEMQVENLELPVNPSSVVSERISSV
The assay can be described thus: Serotonin 5-HT2C radioligand binding ([3H]Mesulergine). As to conditions: compound at 0.1 μM; read-out: Inhibition of ligand binding, Serotonin 5-HT2C (percent inhibition of specific binding). As for the experimental part:
Compounds of the invention were incubated with 1 nM [^3H]Mesulergine for 60 min at 25° C. Non-specific binding was estimated in the presence of 1 μM Mianserin. Receptor proteins were filtered and washed, the filters were then counted to determine [^3H]Mesulergine specifically bound.

T2 sequence (P28223 whole entry): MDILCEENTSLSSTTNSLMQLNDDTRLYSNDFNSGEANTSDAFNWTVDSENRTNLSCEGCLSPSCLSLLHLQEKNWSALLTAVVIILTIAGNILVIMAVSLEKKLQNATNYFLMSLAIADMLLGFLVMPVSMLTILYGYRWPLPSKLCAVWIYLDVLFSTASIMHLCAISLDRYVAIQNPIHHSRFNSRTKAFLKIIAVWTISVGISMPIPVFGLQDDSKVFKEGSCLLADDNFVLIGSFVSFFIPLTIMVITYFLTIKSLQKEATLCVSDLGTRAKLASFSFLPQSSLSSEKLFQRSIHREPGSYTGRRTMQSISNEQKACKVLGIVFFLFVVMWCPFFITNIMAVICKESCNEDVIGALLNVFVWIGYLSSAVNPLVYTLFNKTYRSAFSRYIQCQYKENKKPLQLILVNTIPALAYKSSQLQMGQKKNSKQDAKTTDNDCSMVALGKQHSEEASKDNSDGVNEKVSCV

Consider `Cc1ccc2c(c1)c1c(n2-c2ccc(-c3ccc(F)nc3)cn2)CCN(C)C1` [Compound No. 142, 5-(6′-fluoro-3,3′-bipyridin-6-yl)-2,8-dimethyl-2,3,4,5-tetrahydro-1H-pyrido[4,3-b]indole], for which the inhibition at 0.1 µM was 46% in assay [1]; 103% in assay [2]; -12% in assay [4]; 23% in assay [5]; 98% in assay [6]. In addition, the inhibition at 1 µM in assay [3] amounted to 7%.

As to `Cc1ccc2c(c1)c1c(n2-c2cscc2-c2ccc(O)nc2)CCN(C)C1` [Compound 49], the inhibition at 0.1 µM in assay [1] is 15%; in assay [2] it was 18%; in assay [4], 6%; in assay [5], 52%; in assay [6], 19%. Further, the inhibition at 1 µM in assay [3] came to 7%.

For `Cc1ccc2c(c1)c1c(n2-c2ccccc2-c2cnc(N(C)C)nc2)CCN(C)C1` [Compound 31], the inhibition at 0.1 µM in assay [1] came to 51%; in assay [2] it was 27%; in assay [4] it was 20%; in assay [5] it was 8%; in assay [6] it was 15%. Moreover, the inhibition at 1 µM in assay [3] was 3%.

On to `Cc1ccc2c(c1)c1c(n2-c2ccc(-c3ccc(F)cc3)cn2)CCN(C)C1` [Compound No. 140, 5-(5-(4-fluorophenyl)pyridin-2-yl)-2,8-dimethyl-2,3,4,5-tetrahydro-1H-pyrido[4,3-b]indole], for which the inhibition at 0.1 µM in assay [1] is 31%; in assay [2] it was 104%; in assay [4], 41%; in assay [5], 52%; in assay [6], 100%. For the same molecule, the inhibition at 1 µM in assay [3] came out at 10%.

Turning to `Cc1ccc2c(c1)c1c(n2-c2ccccc2-c2ccc(C)s2)CCN(C)C1` [Compound No. 81, 2,8-dimethyl-5-(2-(5-methylthiophen-2-yl)phenyl)-2,3,4,5-tetrahydro-1H-pyrido[4,3-b]indole], the inhibition at 0.1 µM is 34% in assay [1]; 87% in assay [2]; 44% in assay [4]; 69% in assay [5]; 89% in assay [6]. Besides, the inhibition at 1 µM in assay [3] stood at 57%.

As for `CNC(=O)c1ccc(-c2cscc2-n2c3c(c4cc(C)ccc42)CN(C)CC3)cn1` [Compound No. 73], the inhibition at 0.1 µM turned out to be 71% in assay [1]; 64% in assay [2]; 21% in assay [4]; 48% in assay [5]; 43% in assay [6]. The inhibition at 1 µM in assay [3] came to 20%.

On to `Cc1ccc2c(c1)c1c(n2-c2ccc(-c3ccc(C)nc3)cn2)CCN(C)C1` [Compound No. 156, 2,8-dimethyl-5-(6′-methyl-3,3′-bipyridin-6-yl)-2,3,4,5-tetrahydro-1H-pyrido[4,3-b]indole], for which the inhibition at 0.1 µM in assay [1] was 39%; in assay [2], 90%; in assay [4] it was -5%; in assay [5] it was 41%; in assay [6] it was 96%. Moreover, in assay [3], the inhibition at 1 µM stood at 12%.

Turning to `Cc1ccc2c(c1)c1c(n2-c2ccc(-c3ccc(S(N)(=O)=O)cc3)cn2)CCN(C)C1` [Compound No. 145, 4-(6-(2,8-dimethyl-3,4-dihydro-1H-pyrido[4,3-b]indol-5(2H)-yl)pyridin-3-yl)benzenesulfonamide], the inhibition at 0.1 µM in assay [1] was 44%; in assay [2], 82%; in assay [4], -11%; in assay [5], 15%; in assay [6] it was 66%. Also, the inhibition at 1 µM in assay [3] turned out to be 17%.

`Cc1ccc2c(c1)c1c(n2-c2cscc2-c2ccc3c(ccn3C)c2)CCN(C)C1` [Compound 33]: the inhibition at 0.1 µM in assay [1] is 57%; in assay [2], 39%; in assay [4] it was 60%; in assay [5], 93%; in assay [6], 49%. In addition, the inhibition at 1 µM in assay [3] was -7%.

Regarding `Cc1ccc2c(c1)c1c(n2-c2cccc(-c3cnn(C)c3)c2)CCN(C)C1` [Compound 46, 2,8-dimethyl-5-(3-(1-methyl-1H-pyrazol-4-yl)phenyl)-2,3,4,5-tetrahydro-1H-pyrido[4,3-b]indole], the inhibition at 0.1 µM in assay [1] amounted to 16%; in assay [2] it was 84%; in assay [4] it was 14%; in assay [5], 32%; in assay [6] it was 41%. Further, the inhibition at 1 µM in assay [3] worked out at 19%.

As to `Cc1ccc2c(c1)c1c(n2-c2cccc(-c3ccc(S(N)(=O)=O)cc3)c2)CCN(C)C1` [Compound No. 158, 3′-(2,8-dimethyl-3,4-dihydro-1H-pyrido[4,3-b]indol-5(2H)-yl)biphenyl-4-sulfonamide], the inhibition at 0.1 µM in assay [1] came to 4%; in assay [2] it was 91%; in assay [4] it was 14%; in assay [5], 62%; in assay [6], 47%. Moreover, in assay [3], the inhibition at 1 µM was found to be 1%.

As for `Cc1ccc2c(c1)c1c(n2-c2cccc(-c3ccnn3C)c2)CCN(C)C1` [Compound No. 66, 2,8-dimethyl-5-(3-(1-methyl-1H-pyrazol-5-yl)phenyl)-2,3,4,5-tetrahydro-1H-pyrido[4,3-b]indole], the inhibition at 0.1 µM in assay [1] was 1%; in assay [2], 90%; in assay [4], 30%; in assay [5], 36%; in assay [6], 55%. Moreover, the inhibition at 1 µM in assay [3] was found to be 43%.

`Cc1ccc2c(c1)c1c(n2-c2cscc2-c2cnn(C)c2)CCN(C)C1` [Compound 30]: the inhibition at 0.1 µM in assay [1] amounted to 62%; in assay [2], 92%; in assay [4], 33%; in assay [5], 77%; in assay [6], 84%. Besides, the inhibition at 1 µM in assay [3] turned out to be 23%.

Take `Cc1ccc2c(c1)c1c(n2-c2ccc(-c3cccc4ccccc34)cn2)CCN(C)C1` [Compound No. 141, 2,8-dimethyl-5-(5-(naphthalen-1-yl)pyridin-2-yl)-2,3,4,5-tetrahydro-1H-pyrido[4,3-b]indole]: the inhibition at 0.1 µM turned out to be 33% in assay [1]; 61% in assay [2]; 0% in assay [4]; 87% in assay [5]; 92% in assay [6]. The inhibition at 1 µM in assay [3] was found to be 11%.
